Tests used:
PKC-ε [1] = biological target: T1, PKC-ε (Homo sapiens, UniProt Q02156); assay: PKC-ε activation: incorporation of 32P-inorganic phosphate from gamma-32P-ATP; format: biochemical
T1 sequence (Q02156 1-737): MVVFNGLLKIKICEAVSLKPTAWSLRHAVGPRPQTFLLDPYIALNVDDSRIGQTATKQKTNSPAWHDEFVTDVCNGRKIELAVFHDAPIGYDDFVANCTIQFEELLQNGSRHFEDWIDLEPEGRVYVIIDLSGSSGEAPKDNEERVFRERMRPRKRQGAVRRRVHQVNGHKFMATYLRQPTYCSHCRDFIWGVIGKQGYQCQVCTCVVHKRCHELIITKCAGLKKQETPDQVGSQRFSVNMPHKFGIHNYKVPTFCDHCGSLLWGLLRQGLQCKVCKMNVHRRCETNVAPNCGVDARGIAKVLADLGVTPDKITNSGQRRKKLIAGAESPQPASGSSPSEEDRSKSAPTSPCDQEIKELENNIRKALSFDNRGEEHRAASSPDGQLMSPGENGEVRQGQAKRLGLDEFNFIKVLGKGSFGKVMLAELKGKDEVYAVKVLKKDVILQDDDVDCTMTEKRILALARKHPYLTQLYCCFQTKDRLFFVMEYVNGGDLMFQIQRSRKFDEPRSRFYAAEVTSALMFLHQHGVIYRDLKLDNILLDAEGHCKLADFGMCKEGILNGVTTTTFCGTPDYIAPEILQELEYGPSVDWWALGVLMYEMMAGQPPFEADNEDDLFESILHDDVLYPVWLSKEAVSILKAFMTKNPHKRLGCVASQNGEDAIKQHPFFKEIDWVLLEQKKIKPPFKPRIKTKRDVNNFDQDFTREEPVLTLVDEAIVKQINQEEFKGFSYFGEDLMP
Experimental: Example 4: PKC-ε activation by DCPLA-EtF3 versus DCPLA methyl ester. […] Sen A, Alkon D L, Nelson T J, J. Biol. Chem. 287(19): 15947-58 (2012). PKC-ε activation by DCPLA-EtF3 was measured by measuring the incorporation of 32P-inorganic phosphate from gamma-32P-ATP by recombinant human PKC-ε.
Example 5: PKC-ε activation by 1,1,1-trifluoropropan-2-yl DCPLA. PKC-ε activation by 1,1,1-trifluoropropan-2-yl DCPLA was measured by measuring the incorporation of 32P-inorganic phosphate from gamma-32P-ATP by recombinant human PKC-ε. […] Activation started at 0.01 nM and was biphasic, consistent with a low and a high affinity binding site for DCPLA.

PKC-ε [2] = biological target: T1, PKC-ε; conditions: earlier research, cited from earlier work

CCCCCC1CC1CC1CC1CCCCCCCC(=O)OC(C)C(F)(F)F (stereo not drawn) [1,1,1-trifluoropropan-2-yl DCPLA]
concentration at which PKC-ε activation started (PKC-ε [1]; FIG. 2): 10 pM | potency compared to unmodified DCPLA (PKC-ε [1]; FIG. 2, comparison in words): superior potency | shape of PKC-ε activation response (PKC-ε [1]; FIG. 2, consistent with a low and a high affinity binding site): biphasic

CCCCCC1CC1CC1CC1CCCCCCCC(=O)OCC(F)(F)F (stereo not drawn) [DCPLA-EtF3, DCPLA-trifluoroethyl ester]
concentration of peak PKC-ε activation (PKC-ε [1]; FIG. 1): 0.1 to 1 nM | extent of PKC-ε activation compared with DCPLA methyl ester (PKC-ε [1]; FIG. 1, comparison in words): approximately the same extent of activation as DCPLA methyl ester | potency as PKC-ε activator relative to DCPLA methyl ester (PKC-ε [1]; FIG. 1, more potent than DCPLA methyl ester): approximately 1000 times | potency compared with bryostatin-1 (PKC-ε [1]; comparison in words): approximately equal to that of bryostatin-1

CCCCCC1CC1CC1CC1CCCCCCCC(=O)OC (stereo not drawn) [DCPLA methyl ester]
concentration of maximum PKC-ε activation (PKC-ε [2]): 0.1 µM | potency as PKC-ε activator relative to unesterified DCPLA (PKC-ε [2]; more potent than unesterified DCPLA): approximately 100 times

From patent US12016837B2, “Halogenated esters of cyclopropanated unsaturated fatty acids for use in the treatment of neurodegenerative diseases” (Synaptogenix, Inc., priority 2013, dated 2024)
